Laboratory results from article PMC4621751 (The Journal of General Physiology, 2015).

How the values were obtained:
[1] = biological target: T1, human Elk1 (HsElk1, Kv12.1, KCNH8) (Homo sapiens, UniProt Q96L42); assay: inside-out patch clamp, activation time constant; type: biochemical; conditions: -20 mV, intracellular application, excised patch, pH 7.2
T1 sequence (Q96L42 1-1107): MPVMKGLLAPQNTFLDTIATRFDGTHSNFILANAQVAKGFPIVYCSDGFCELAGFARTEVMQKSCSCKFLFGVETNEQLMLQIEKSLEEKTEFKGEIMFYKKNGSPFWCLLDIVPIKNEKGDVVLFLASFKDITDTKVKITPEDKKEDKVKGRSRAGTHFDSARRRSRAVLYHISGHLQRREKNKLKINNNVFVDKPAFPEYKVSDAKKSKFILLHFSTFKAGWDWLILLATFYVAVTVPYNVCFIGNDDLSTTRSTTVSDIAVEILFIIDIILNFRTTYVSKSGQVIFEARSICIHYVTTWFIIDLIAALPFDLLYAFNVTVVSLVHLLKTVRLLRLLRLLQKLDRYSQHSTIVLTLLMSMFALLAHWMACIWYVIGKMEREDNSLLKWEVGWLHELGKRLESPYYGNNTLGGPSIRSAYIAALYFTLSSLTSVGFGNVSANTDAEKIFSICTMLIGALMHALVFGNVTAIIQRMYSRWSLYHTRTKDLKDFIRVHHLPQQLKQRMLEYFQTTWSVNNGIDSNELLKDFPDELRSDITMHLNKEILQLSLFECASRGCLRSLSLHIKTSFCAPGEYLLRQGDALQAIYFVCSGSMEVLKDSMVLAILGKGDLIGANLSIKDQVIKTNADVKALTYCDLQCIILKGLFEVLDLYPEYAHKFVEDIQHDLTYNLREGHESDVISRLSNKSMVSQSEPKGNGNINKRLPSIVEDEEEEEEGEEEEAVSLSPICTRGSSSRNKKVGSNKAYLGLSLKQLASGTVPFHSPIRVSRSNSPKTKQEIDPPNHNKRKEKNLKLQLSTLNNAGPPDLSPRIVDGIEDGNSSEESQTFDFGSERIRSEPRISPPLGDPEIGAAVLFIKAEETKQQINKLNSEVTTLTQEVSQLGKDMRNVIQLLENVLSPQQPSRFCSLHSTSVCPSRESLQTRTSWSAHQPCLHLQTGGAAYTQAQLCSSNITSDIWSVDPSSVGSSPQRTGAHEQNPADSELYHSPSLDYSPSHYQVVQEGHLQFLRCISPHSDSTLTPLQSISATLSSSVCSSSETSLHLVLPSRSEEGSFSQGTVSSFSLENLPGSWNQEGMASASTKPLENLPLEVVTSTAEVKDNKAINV

[2] = biological target: T1, human Elk1 (HsElk1, Kv12.1, KCNH8); assay: inside-out patch clamp, Hill fit of activation time constant; type: cell-based

EC50 [2] [µM]	Structure (SMILES)	fold change of τact at 10 μM [1]
	CCCCCCCC(=O)OC[C@H](COP(=O)(O)O[C@H]1[C@H](O)[C@@H](OP(=O)(O)O)[C@H](OP(=O)(O)O)[C@@H](OP(=O)(O)O)[C@H]1O)OC(=O)CCCCCCC [diC8-PIP3]	PIP3 slowed activation significantly more than PIP2
12.7 ± 2.2	CCCCCCCC(=O)OC[C@H](COP(=O)(O)O[C@@H]1[C@H](O)[C@H](O)[C@@H](OP(=O)(O)O)[C@H](OP(=O)(O)O)[C@H]1O)OC(=O)CCCCCCC [diC8-PIP2]	
